Measured values reported in US12139520B2 (priority 2020, dated 2024).
Bridge positions count the residues as written; N and C are the ends. Square brackets hold non-standard residues; d marks the D form. Peptide text beside a SMILES is read from it. Hyp = O=C(O)[C@@H]1C[C@@H](O)CN1

Assay: Physical stability of peptide analogues (Thioflavin T fibrillation)
Type: physicochemical
Conditions: maximum ThT signal normalized between hAMY maximum and buffer background; 40° C., shaking, four days; pH 7 per table title
Description: General Protocols for Determination of Physical Stability of Peptide Analogues
Peptides were dissolved in buffers (50 mM sodium acetate at pH 4 or 50 mM sodium phosphate at pH 7) and incubated for one hour. The samples were then divided into two replicates of 80 μl in a black 384 well plate (μ-clear, Greiner Bio-One) and mixed with Thioflavin T (ThT) to a final concentration of 4 μM. The plate was sealed and placed in a plate reader (CLARIOstar, BMG) where the temperature was set at 40° C. during the course of the experiment. The samples were further stressed by shaking the plate at 700 rpm (linear) for five minutes before every measurement. The fluorescence was measured every 10 min for four days by exciting the ThT at 450 nm and measuring the emission at 480 nm. For each peptide, the ThT signal over time was smoothened using Local Polynomial Regression fitting (LOESS) as implemented in the statistical programming environment R. For the smoothened data, the maximum ThT signal was normalized in percent between the maximum ThT signal for hAMY and the buffer background.

Row | Max ThT signal (%) | Compound
1 | 9.300% | CC[C@H](C)[C@H](NC(=O)[C@H](CCC(N)=O)NC(=O)[C@H](Cc1c[nH]cn1)NC(=O)[C@H](C)NC(=O)[C@H](CC(C)C)NC(=O)[C@H](CCCNC(=N)N)NC(=O)[C@H](CCC(N)=O)NC(=O)[C@@H](NC(=O)[C@@H](NC(=O)[C@@H]1CSSC[C@H](NC(=O)[C@@H](N)CCCCN)C(=O)N[C@@H](CC(N)=O)C(=O)N[C@@H]([C@@H](C)O)C(=O)N[C@@H](C)C(=O)N[C@@H]([C@@H](C)O)C(=O)N1)[C@@H](C)O)C(C)C)C(=O)N[C@@H](Cc1ccc(O)cc1)C(=O)N[C@@H](CCC(N)=O)C(=O)N[C@@H](Cc1ccccc1)C(=O)N[C@H](C(=O)N[C@@H](CCCCN)C(=O)N[C@@H](CC(=O)O)C(=O)N[C@@H](CCCCN)C(=O)N[C@@H](CC(=O)O)C(=O)N[C@@H](CC(N)=O)C(=O)N[C@H](C(=O)N[C@@H](C)C(=O)N1CCC[C@H]1C(=O)N1CCC[C@H]1C(=O)N[C@H](C(=O)N[C@@H](CC(N)=O)C(=O)N[C@H](C(=O)NCC(=O)N[C@@H](CO)C(=O)N[C@@H](CC(N)=O)C(=O)NCC(=O)N1C[C@H](O)C[C@H]1C(N)=O)C(C)C)[C@@H](C)O)C(C)C)[C@@H](C)O [compound 29] (H-KCNTATCTVQRLAHQIYQFTKDKDNVAPPTNVGSNG[Hyp]-NH2; disulfide 2-7; N-terminus assumed)
2 | 1.600% | CC[C@H](C)[C@H](NC(=O)[C@H](CCC(N)=O)NC(=O)[C@H](Cc1c[nH]cn1)NC(=O)[C@H](C)NC(=O)[C@H](CC(C)C)NC(=O)[C@H](CCCNC(=N)N)NC(=O)[C@H](CCC(N)=O)NC(=O)[C@@H](NC(=O)[C@@H](NC(=O)[C@@H]1CSSC[C@H](NC(=O)CN)C(=O)N[C@@H](CCCNC(=N)N)C(=O)N[C@@H]([C@@H](C)O)C(=O)NCC(=O)N[C@@H]([C@@H](C)O)C(=O)N1)[C@@H](C)O)C(C)C)C(=O)N[C@@H](Cc1ccc(O)cc1)C(=O)N[C@@H](CCC(N)=O)C(=O)N[C@@H](Cc1ccccc1)C(=O)N[C@H](C(=O)N[C@@H](CC(=O)O)C(=O)N[C@@H](CCCCN)C(=O)N[C@@H](CC(=O)O)C(=O)N[C@@H](CCCCN)C(=O)N[C@@H](CC(=O)O)C(=O)N[C@@H](CC(N)=O)C(=O)N[C@H](C(=O)N[C@@H](C)C(=O)N1CCC[C@H]1C(=O)N[C@@H](CCCNC(=N)N)C(=O)N[C@@H](CO)C(=O)N[C@@H](CCCCN)C(=O)N[C@H](C(=O)NCC(=O)N1CCC[C@H]1C(=O)N[C@@H](CCC(N)=O)C(=O)NCC(=O)N1C[C@H](O)C[C@H]1C(N)=O)C(C)C)C(C)C)[C@@H](C)O [compound 187] (H-GCRTGTCTVQRLAHQIYQFTDKDKDNVAPRSKVGPQG[Hyp]-NH2; disulfide 2-7; N-terminus assumed)
3 | 13.900% | CC[C@H](C)[C@H](NC(=O)[C@H](CCC(N)=O)NC(=O)[C@H](Cc1c[nH]cn1)NC(=O)[C@H](C)NC(=O)[C@H](CC(C)C)NC(=O)[C@H](CCCNC(=N)N)NC(=O)[C@H](CCC(N)=O)NC(=O)[C@@H](NC(=O)[C@@H](NC(=O)[C@@H]1CSSC[C@H](NC(=O)CN)C(=O)N[C@@H](CCCNC(=N)N)C(=O)N[C@@H]([C@@H](C)O)C(=O)NCC(=O)N[C@@H]([C@@H](C)O)C(=O)N1)[C@@H](C)O)C(C)C)C(=O)N[C@@H](Cc1ccc(O)cc1)C(=O)N[C@@H](CCC(N)=O)C(=O)N[C@@H](Cc1ccccc1)C(=O)N[C@H](C(=O)N[C@@H](CC(=O)O)C(=O)N[C@@H](CCCCN)C(=O)N[C@@H](CC(=O)O)C(=O)N[C@@H](CCCCN)C(=O)N[C@@H](CC(=O)O)C(=O)N[C@@H](CC(N)=O)C(=O)N[C@H](C(=O)N[C@@H](C)C(=O)N1CCC[C@H]1C(=O)N[C@@H](CCCNC(=N)N)C(=O)N[C@@H](CO)C(=O)N[C@@H](CC(N)=O)C(=O)N[C@H](C(=O)N[C@@H](CO)C(=O)N1CCC[C@H]1C(=O)N[C@@H](CC(N)=O)C(=O)NCC(=O)N[C@@H](Cc1ccc(O)cc1)C(N)=O)C(C)C)C(C)C)[C@@H](C)O [compound 172] (H-GCRTGTCTVQRLAHQIYQFTDKDKDNVAPRSNVSPNGY-NH2; disulfide 2-7; N-terminus assumed)
4 | 3.200% | CC[C@H](C)[C@H](NC(=O)[C@H](CCC(N)=O)NC(=O)[C@H](Cc1c[nH]cn1)NC(=O)[C@H](C)NC(=O)[C@H](CC(C)C)NC(=O)[C@H](CCCNC(=N)N)NC(=O)[C@H](CCC(N)=O)NC(=O)[C@@H](NC(=O)[C@@H](NC(=O)[C@@H]1CSSC[C@H](NC(=O)CN)C(=O)N[C@@H](CCCNC(=N)N)C(=O)N[C@@H](Cc2ccccc2)C(=O)NCC(=O)N[C@@H]([C@@H](C)O)C(=O)N1)[C@@H](C)O)C(C)C)C(=O)N[C@@H](Cc1ccc(O)cc1)C(=O)N[C@@H](CCC(N)=O)C(=O)N[C@@H](Cc1ccccc1)C(=O)N[C@H](C(=O)N[C@@H](CC(=O)O)C(=O)N[C@@H](CCCCN)C(=O)N[C@@H](CC(=O)O)C(=O)N[C@@H](CCCCN)C(=O)N[C@@H](CC(=O)O)C(=O)N[C@@H](CC(N)=O)C(=O)N[C@H](C(=O)N[C@@H](C)C(=O)N1CCC[C@H]1C(=O)N[C@@H](CCCNC(=N)N)C(=O)N[C@@H](CO)C(=O)N[C@@H](CCCCN)C(=O)N[C@H](C(=O)N[C@@H](CO)C(=O)N1CCC[C@H]1C(=O)N[C@@H](CC(N)=O)C(=O)NCC(=O)N1C[C@H](O)C[C@H]1C(N)=O)C(C)C)C(C)C)[C@@H](C)O [compound 175] (H-GCRFGTCTVQRLAHQIYQFTDKDKDNVAPRSKVSPNG[Hyp]-NH2; disulfide 2-7)
5 | 5.600% | CC[C@H](C)[C@H](NC(=O)[C@H](CCC(N)=O)NC(=O)[C@H](Cc1c[nH]cn1)NC(=O)[C@H](C)NC(=O)[C@H](CC(C)C)NC(=O)[C@H](CCCNC(=N)N)NC(=O)[C@H](CCC(N)=O)NC(=O)[C@@H](NC(=O)[C@@H](NC(=O)[C@@H]1CSSC[C@H](NC(=O)CN)C(=O)N[C@@H](CCCNC(=N)N)C(=O)N[C@@H]([C@@H](C)O)C(=O)NCC(=O)N[C@@H]([C@@H](C)O)C(=O)N1)[C@@H](C)O)C(C)C)C(=O)N[C@@H](Cc1ccc(O)cc1)C(=O)N[C@@H](CCC(N)=O)C(=O)N[C@@H](Cc1ccccc1)C(=O)N[C@H](C(=O)N[C@@H](CC(=O)O)C(=O)N[C@@H](CCCCN)C(=O)N[C@@H](CC(=O)O)C(=O)N[C@@H](CCCCN)C(=O)N[C@@H](CC(=O)O)C(=O)N[C@@H](CC(N)=O)C(=O)N[C@H](C(=O)N[C@@H](C)C(=O)N1CCC[C@H]1C(=O)N[C@@H](CCCNC(=N)N)C(=O)N[C@H](C(=O)N[C@@H](CCCCN)C(=O)N[C@H](C(=O)N[C@@H](CO)C(=O)N1CCC[C@H]1C(=O)N[C@@H](CC(N)=O)C(=O)NCC(=O)N1C[C@H](O)C[C@H]1C(N)=O)[C@@H](C)CC)[C@@H](C)O)C(C)C)[C@@H](C)O [compound 197] (H-GCRTGTCTVQRLAHQIYQFTDKDKDNVAPRTKISPNG[Hyp]-NH2; disulfide 2-7; N-terminus assumed)
6 | 2.600% | CC[C@H](C)[C@H](NC(=O)[C@H](CCC(N)=O)NC(=O)[C@H](Cc1c[nH]cn1)NC(=O)[C@H](C)NC(=O)[C@H](CC(C)C)NC(=O)[C@H](CCCCN)NC(=O)[C@H](CCC(N)=O)NC(=O)[C@@H](NC(=O)[C@@H](NC(=O)[C@@H]1CSSC[C@H](NC(=O)CN)C(=O)N[C@@H](CCCNC(=N)N)C(=O)N[C@@H](Cc2ccccc2)C(=O)NCC(=O)N[C@@H]([C@@H](C)O)C(=O)N1)[C@@H](C)O)C(C)C)C(=O)N[C@@H](Cc1ccc(O)cc1)C(=O)N[C@@H](CCC(N)=O)C(=O)N[C@@H](Cc1ccccc1)C(=O)N[C@H](C(=O)N[C@@H](CC(=O)O)C(=O)N[C@@H](CCCCN)C(=O)N[C@@H](CC(=O)O)C(=O)N[C@@H](CCCCN)C(=O)N[C@@H](CC(=O)O)C(=O)N[C@@H](CC(N)=O)C(=O)N[C@H](C(=O)N[C@@H](C)C(=O)N1CCC[C@H]1C(=O)N[C@@H](CCCNC(=N)N)C(=O)N[C@@H](CO)C(=O)N[C@@H](CCCCN)C(=O)N[C@H](C(=O)N[C@@H](CO)C(=O)N1CCC[C@H]1C(=O)N[C@@H](CCC(N)=O)C(=O)NCC(=O)N[C@@H](Cc1ccc(O)cc1)C(N)=O)[C@@H](C)CC)C(C)C)[C@@H](C)O [compound 1]
7 | 15.700% | CC[C@H](C)[C@H](NC(=O)[C@H](CCC(N)=O)NC(=O)[C@H](Cc1c[nH]cn1)NC(=O)[C@H](C)NC(=O)[C@H](CC(C)C)NC(=O)[C@H](Cc1c[nH]c2ccccc12)NC(=O)[C@H](CCC(N)=O)NC(=O)[C@@H](NC(=O)[C@@H](NC(=O)[C@@H]1CSSC[C@H](NC(=O)CN)C(=O)N[C@@H](CCCNC(=N)N)C(=O)N[C@@H](Cc2ccccc2)C(=O)NCC(=O)N[C@@H]([C@@H](C)O)C(=O)N1)[C@@H](C)O)C(C)C)C(=O)N[C@@H](Cc1ccc(O)cc1)C(=O)N[C@@H](CCC(N)=O)C(=O)N[C@@H](Cc1ccccc1)C(=O)N[C@H](C(=O)N[C@@H](CC(=O)O)C(=O)N[C@@H](CCCCN)C(=O)N[C@@H](CC(=O)O)C(=O)N[C@@H](CCCCN)C(=O)N[C@@H](CC(=O)O)C(=O)N[C@@H](CC(N)=O)C(=O)N[C@H](C(=O)N[C@@H](C)C(=O)N1CCC[C@H]1C(=O)N[C@@H](CCCNC(=N)N)C(=O)N[C@H](C(=O)N[C@@H](CCCCN)C(=O)N[C@H](C(=O)N[C@@H](CO)C(=O)N1CCC[C@H]1C(=O)N[C@@H](CCC(N)=O)C(=O)NCC(=O)N1C[C@H](O)C[C@H]1C(N)=O)[C@@H](C)CC)[C@@H](C)O)C(C)C)[C@@H](C)O [compound 350] (H-GCRFGTCTVQWLAHQIYQFTDKDKDNVAPRTKISPQG[Hyp]-NH2; disulfide 2-7; N-terminus assumed)
